In brackets after ≈: the same amount, converted by molar mass.
What was measured:
[1] = system: M. tuberculosis transformed with luxABCDE; assay: microbe, parasite or virus in culture; type: cell-based, Mycobacterium tuberculosis; conditions: for MBC: Mycobacterium tuberculosis, 168 h, ≥99% reduction in luminescence, read-out: MBC99 Day 7 (Lux Assay) MBC
[2] = system: non-replicating cultures of M. tuberculosis H37Rv transformed with lux ABCDE; assay: microbe, parasite or virus in culture; type: cell-based, Mycobacterium tuberculosis; conditions: for MIC90: Mycobacterium tuberculosis, H37RV, ≥90% reduction in luminescence, read-out: MIC90 LORA; for MIC90 LORA/MABA: ratio of LORA MIC90 to MABA MIC90

Structure (SMILES)	MBC99 Day 7 (Lux Assay) MBC Rel to RMP [1]	MBC [1] [µM]	MIC90 LORA Rel to RMP [2]	MIC90 [2] [µM]	MIC90 LORA/MABA [2]
CO[C@H]1/C=C/O[C@@]2(C)Oc3c(C)c(O)c4c(=O)c(c5oc6cc(N7CCN(C(=O)C(C)(C)C)CC7)cc(C)c6nc-5c4c3C2=O)NC(=O)/C(C)=C\C=C\[C@H](C)[C@H](O)[C@@H](C)[C@@H](O)[C@@H](C)[C@H](OC(C)=O)[C@@H]1C [Compound 26f, (7S,9E,11S,12R,13S,14R,15R,16R,17S,18S,19E,21Z)-30-[4-(2,2-Dimethylpropanoyl)piperazin-1-yl]-2,15,17-trihydroxy-11-methoxy-3,7,12,14,16,18,22,32-octamethyl-6,23,37-trioxo-8,27,38-trioxa-24,34-diazahexacyclo[23.11.1.1^4,7.0^5,36.0^26,35.0^28,33]octatriaconta-1(36)2,4,9,19,21,25,28,30,32,34-undecaen-13-yl acetate]	0.09	0.043	0.05	0.0095	2.1
COC(=O)N1CCN(c2cc(C)c3nc4c5c6c7c(C)c(O)c5c(=O)c(c-4oc3c2)NC(=O)/C(C)=C\C=C\[C@H](C)[C@H](O)[C@@H](C)[C@@H](O)[C@@H](C)[C@H](OC(C)=O)[C@H](C)[C@@H](OC)/C=C/O[C@@](C)(O7)C6=O)CC1 [Compound 26g, Methyl 4-[(7S,9E,11S,12R,13S,14R,15R,16R,17S,18S,19E,21Z)-13-(acetyloxy)-2,15,17-trihydroxy-11-methoxy-3,7,12,14,16,18,22,32-octamethyl-6,23,37-trioxo-8,27,38-trioxa-24,34-diazahexacyclo[23.11.1.1^4,7.0^5,36.0^26,35.0^28,33]octatriaconta-1(36)2,4,9,19,21,25,28,30,32,34-undecaen-30-yl]piperazine-1-carboxylate]	0.09	0.043 (≈ 0.0405 µg/mL)	0.05	0.0096 (≈ 0.00903 µg/mL)	1.9
CCOC(=O)N1CCN(c2cc(C)c3nc4c5c6c7c(C)c(O)c5c(=O)c(c-4oc3c2)NC(=O)/C(C)=C\C=C\[C@H](C)[C@H](O)[C@@H](C)[C@@H](O)[C@@H](C)[C@H](OC(C)=O)[C@H](C)[C@@H](OC)/C=C/O[C@@](C)(O7)C6=O)CC1 [Compound 26h, Ethyl 4-[(7S,9E,11S,12R,13S,14R,15R,16R,17S,18S,19E,21Z)-13-(acetyloxy)-2,15,17-trihydroxy-11-methoxy-3,7,12,14,16,18,22,32-octamethyl-6,23,37-trioxo-8,27,38-trioxa-24,34-diazahexacyclo[23.11.1.1^4,7.0^5,36.0^26,35.0^28,33]octatriaconta-1(36)2,4,9,19,21,25,28,30,32,34-undecaen-30-yl]piperazine-1-carboxylate]	0.06	0.028 (≈ 0.0267 µg/mL)	0.05	0.0094 (≈ 0.00898 µg/mL)	1.9
CO[C@H]1/C=C/O[C@@]2(C)Oc3c(C)c(O)c4c(=O)c(c5oc6cc(N7CCN(C(=O)OC(C)(C)C)CC7)cc(C)c6nc-5c4c3C2=O)NC(=O)/C(C)=C\C=C\[C@H](C)[C@H](O)[C@@H](C)[C@@H](O)[C@@H](C)[C@H](OC(C)=O)[C@@H]1C [Compound 26i, tert-Butyl 4-[(7S,9E,11S,12R,13S,14R,15R,16R,17S,18S,19E,21Z)-13-(acetyloxy)-2,15,17-trihydroxy-11-methoxy-3,7,12,14,16,18,22,32-octamethyl-6,23,37-trioxo-8,27,38-trioxa-24,34-diazahexacyclo[23.11.1.1^4,7.0^5,36.0^26,35.0^28,33]octatriaconta-1(36)2,4,9,19,21,25,28,30,32,34-undecaen-30-yl]piperazine-1-carboxylate]	0.10	0.047 (≈ 0.0462 µg/mL)	0.05	0.0093 (≈ 0.00914 µg/mL)	2.0
CO[C@H]1/C=C/O[C@@]2(C)Oc3c(C)c(O)c4c(=O)c(c5oc6cc(N7CCCC(C(=O)Nc8ccc(Cl)cc8)C7)cc(C)c6nc-5c4c3C2=O)NC(=O)/C(C)=C\C=C\[C@H](C)[C@H](O)[C@@H](C)[C@@H](O)[C@@H](C)[C@H](OC(C)=O)[C@@H]1C (stereo partly drawn) [Compound 28, (7S,9E,11S,12R,13S,14R,15R,16R,17S,1S,19E,21Z)-30-{3-[(4-Chlorophenyl)carbamoyl]piperidin-1-yl}-2,15,17-trihydroxy-11-methoxy-3,7,12,14,16,18,22,32-octamethyl-6,23,37-trioxo-8,27,38-trioxa-24,34-diazahexacyclo[23.11.1.1^4,7.0^5,36.0^26,35.0^28,33]octatriaconta-1(36)2,4,9,19,21,25,28,30,32,34-undecaen-13-yl acetate]	0.05	0.025	0.04	0.0092	2.1
CO[C@H]1/C=C/O[C@@]2(C)Oc3c(C)c(O)c4c(=O)c(c5oc6cc(N7CCN(C(=O)c8cccc(-c9ccccn9)c8)CC7)cc(C)c6nc-5c4c3C2=O)NC(=O)/C(C)=C\C=C\[C@H](C)[C@H](O)[C@@H](C)[C@@H](O)[C@@H](C)[C@H](OC(C)=O)[C@@H]1C [Compound 29b, (7S,9E,11S,12R,13S,14R,15R,16R,17S,18S,19E,21Z)-2,15,17-Trihydroxy-11-methoxy-3,7,12,14,16,18,22,32-octamethyl-6,23,37-trioxo-30-(4-[3-(pyridin-2-yl)benzoyl]piperazin-1-yl)-8,27,38-trioxa-24,34-diazahexacyclo-[23.11.1.1^4,7.0^5,36.0^26,35.0^28,33]octatriaconta-1(36)2,4,9,19,21,25,28,30,32,34-undecaen-13-yl acetate]	0.11	0.05	0.03	0.006	0.7
CO[C@H]1/C=C/O[C@@]2(C)Oc3c(C)c(O)c4c(=O)c(c5oc6cc(N7CCN(C(=O)c8ccc9occc9c8)CC7)cc(C)c6nc-5c4c3C2=O)NC(=O)/C(C)=C\C=C\[C@H](C)[C@H](O)[C@@H](C)[C@@H](O)[C@@H](C)[C@H](OC(C)=O)[C@@H]1C [Compound 29c, (7S,9E,11S,12R,13S,14R,15R,16R,17S,18S,19E,21Z)-30-[4-(1-Benzofuran-5-carbonyl)piperazin-1-yl]-2,15,17-trihydroxy-11-methoxy-3,7,12,14,16,18,22,32-octamethyl-6,23,37-trioxo-8,27,38-trioxa-24,34-diazahexacyclo[23.11.1.1^4,7.0^5,36.0^26,35.0^28,33]octatriaconta-(36)2,4,9,19,21,25,28,30,32,34-undecaen-13-yl acetate]	0.10	0.048	0.05	0.0096	2.0
CO[C@H]1/C=C/O[C@@]2(C)Oc3c(C)c(O)c4c(=O)c(c5oc6cc(N7CCN(CCCCCCO[C@@H]8COc9nc([N+](=O)[O-])cn9C8)CC7)cc(C)c6nc-5c4c3C2=O)NC(=O)/C(C)=C\C=C\[C@H](C)[C@H](O)[C@@H](C)[C@@H](O)[C@@H](C)[C@H](OC(C)=O)[C@@H]1C [Compound 29e, (7S,9E,11S,12R,13S,14R,15R,16R,17S,18S,19E,21Z)-2,15,17-Trihydroxy-11-methoxy-3,7,12,14,16,18,22,32-octamethyl-30-[4-(6-{[(6S)-2-nitro-5H,6H,7H-imidazo[2,1-b][1,3]oxazin-6-yl]oxy}hexyl)piperazin-1-yl]-6,23,37-trioxo-8,27,38-trioxa-24,34-diazahexacyclo[23.11.1.1^4,7.0^5,36.0^26,35.0^28,33]octatriaconta-1(36)2,4,9,19,21,25,28,30,32,34-undecaen-13-yl acetate]	0.11	0.05	0.03	0.008	4.0
CO[C@H]1/C=C/O[C@@]2(C)Oc3c(C)c(O)c4c(=O)c(c5oc6cc(N7CCC(C(=O)O)CC7)cc(C)c6nc-5c4c3C2=O)NC(=O)/C(C)=C\C=C\[C@H](C)[C@H](O)[C@@H](C)[C@@H](O)[C@@H](C)[C@H](OC(C)=O)[C@@H]1C [Compound 29f, 1-[(7S,9E,11S,12R,13S,14R,15R,16R,17S,18S,19E,21Z)-13-(acetyloxy)-2,15,17-trihydroxy-11-methoxy-3,7,12,14,16,18,22,32-octamethyl-6,23,37-trioxo-8,27,38-trioxa-24,34-diazahexacyclo-[23.11.1.1^4,7.0^5,36.0^26,35.0^28,33]octatriaconta-1,3,5(36)9,19,21,25,28,30,32,34-undecaen-30-yl]piperidine-4-carboxylic acid]		> 0.1	40	1.07 (≈ 0.987 µg/mL)	4.5
CO[C@H]1/C=C/O[C@@]2(C)Oc3c(C)c(O)c4c(=O)c(c5oc6cc(N7CCC(CC(=O)O)CC7)cc(C)c6nc-5c4c3C2=O)NC(=O)/C(C)=C\C=C\[C@H](C)[C@H](O)[C@@H](C)[C@@H](O)[C@@H](C)[C@H](OC(C)=O)[C@@H]1C [Compound 29g, 2-{4-[(7S,9E,11S,12R,13S,14R,15R,16R,17S,18S,19E,21Z)-13-(acetyloxy)-2,15,17-trihydroxy-11-methoxy-3,7,12,14,16,18,22,32-octamethyl-6,23,37-trioxo-8,27,38-trioxa-24,34-diazahexacyclo[23.11.1.1^4,7.0^5,36.0^26,35.0^28,33]octatriaconta-1,3,5(36)9,19,21,25,28,30,32,34-undecaen-30-yl]piperidin-4-yl}acetic acid]		> 0.1	10	0.28 (≈ 0.263 µg/mL)	5.4

From US20250188092A1, “RIFAMYCIN ANALOGS” (THE REGENTS OF THE UNIVERSITY OF MICHIGAN, priority 2021, published 2025)
